Measurements from ChEMBL document CHEMBL1137044, “Benzothiophene and naphthalene derived constrained SERMs” (Bioorg Med Chem Lett, 2004).

Assays:
Estrogen receptor [1] = biological target: T1, Estrogen receptor (Homo sapiens, UniProt Q92731+P03372); assay: Antagonist effect against 10 pM 17-beta-estradiol induced MCF-7 cell proliferation; assay type: functional, cell-based
[2] = Inhibition of [3H]estradiol binding to Estrogen receptor beta
[3] = Inhibition of [3H]estradiol binding to Estrogen receptor alpha
Estrogen receptor [4] = biological target: T1, Estrogen receptor; assay type: functional, cell-based; conditions: ishikawa
Estrogen receptor [5] = biological target: T1, Estrogen receptor; assay: Agonist activity as alkaline phosphatase induction in Ishikawa endometrial cells compared to E2; assay type: functional, cell-based

SMILES	IC50 (Estrogen receptor [1]) [nM]	Ki [2] [nM]	Ki [3] [nM]	IC50 (Estrogen receptor [4]) [nM]	EC50 (Estrogen receptor [5]) [nM]
Oc1ccc2c3c(ccc2c1)Cc1c(O)cccc1C3c1ccc(OCCN2CCCCC2)cc1 (stereo not drawn)	2.9	5.4	1.1	50	0.7
Oc1ccc2c3c(sc2c1)Cc1ccccc1C3c1ccc(C(O)CCN2CCCCC2)cc1 (stereo not drawn)	17	5.3	2.4	710	3.5
Oc1ccc2c(c1)C(c1ccc(OCCN3CCCCC3)cc1)c1c(ccc3cc(O)ccc13)C2 (stereo not drawn)	6.6	3.2	1	130	2.6
Oc1ccc2c(c1)Cc1ccc3cc(O)ccc3c1C2c1ccc(OCCN2CCCCC2)cc1 (single isomer, unassigned)		4.4	0.7		
Oc1ccc2c(c1)Cc1sc3cc(O)ccc3c1C2c1ccc(C(O)CCN2CCCCC2)cc1 (stereo not drawn)	0.7	1.3	0.7	45	0.4
Oc1ccc2c(c1)sc1cc3ccc(O)cc3c(-c3ccc(C(O)CCN4CCCCC4)cc3)c12 (stereo not drawn)	1	0.3	0.4	690	1.6
Oc1ccc2c3c(ccc2c1)Cc1cccc(O)c1C3c1ccc(OCCN2CCCCC2)cc1 (stereo not drawn)	68	40	7.7	580	28
Oc1ccc2c(c1)Cc1ccc3cc(O)ccc3c1C2c1ccc(OCCN2CCCCC2)cc1 (stereo in doubt; form 2)		4.2	0.8		
CCC(=C(c1ccc(O)cc1)c1ccc(OCCN(C)C)cc1)c1ccccc1		0.5	0.5		
Oc1ccc2c(ccc3cc4ccc(O)cc4c(-c4ccc(OCCN5CCCCC5)cc4)c32)c1	57	0.5	0.8	820	10
Oc1ccc2c(c1)C(c1ccc(C(O)CCN3CCCCC3)cc1)c1c(sc3cc(O)ccc13)C2 (stereo not drawn)	0.9	0.9	0.5	53	0.9
Oc1ccc2c3c(sc2c1)Cc1cccc(O)c1C3c1ccc(C(O)CCN2CCCCC2)cc1 (stereo not drawn)	42	14	2.6	680	3.1
Oc1ccc2c(c1)Cc1ccc3cc(O)ccc3c1C2c1ccc(OCCN2CCCCC2)cc1 (stereo in doubt; form 1)		5.5	1.1		
